Assays:
HFD-fed mice [1] = experiment: Visceral and subcutaneous fat volumes by MRI (Example 3); format: in vivo, C57BL/6J mice; details: 15 μg/kg i.p. twice a week for 16 weeks, n=5
Protocol: (§1) Mice were group-housed (4-5 mice per cage) on a proper temperature control of 24-26° C. with a 12 h light/dark cycle with food and water available ad libidum.
Abdominal area of animals was scanned for assessing visceral and subcutaneous fat loading by using magnetic resonance imaging system (MRI, Bruker BioSpin Group, Bruker Corporations, Germany) before experiment and then once a month during the experiment. The study procedure was conducted as follows: mice (n=5 per group) were anesthetized using isoflurane (1.5-2.5% in 1.5 l/min medical oxygen) and placed on a heated animal bed throughout the MRI procedure. Scans were performed using a 9.4T Bruker BioSpec 94/21 USR system connected to a 1H circular polarized transceiver coil and running Para Vision 6.0.1® software (Bruker BioSpin Group, Bruker Corporation, Germany). Respiration was monitored using a respiration pillow (SA Instruments Inc., Stony Brook, USA) and respiration rate was maintained at between 35-70 breaths per minute. Two orientation pilot scans were performed in order to establish the position of the animal and identify anatomical landmarks relevant for planning the subsequent scan. The final Tl-weighted Bruker: RARE sequence was performed using the following parameters: repetition time (TR) 1164 ms, echo time (TE) 6 ms, flip angle 90 degrees, number of averages 2, imaging matrix 320×320×40, spatial resolution 0.125×0.125×0.5 mm. Volumes were segmented manually by an observer blinded to the experiment using ITK-SNAP (V3.8.0). A 40× zoom was used to measure visceral and subcutaneous fat volume, and renal onset was the starting point for the fat volume analysis.

HFD-fed mice [2] = format: in vivo, C57BL/6J mice; details: 15 μg/kg i.p. twice a week for 16 weeks; for Epididymal fat, absolute organ weight / Epididymal fat, normalized organ weight (organ weight/body weight) / Liver, absolute organ weight / Liver, normalized organ weight (organ weight/body weight): mean ± SEM, n=10
Protocol: as §1

HFD-fed mice [3] = experiment: Blood metabolic markers in serum (Example 5); format: in vivo, C57BL/6J mice; details: for HDL in serum / LDL in serum / Total cholesterol in serum / Triglycerides in serum: 15 μg/kg i.p. twice a week, study week 16
Protocol: as §1
The mice were deeply anesthetized with a terminal dosage of phenobarbital (200-300 mg/kg)24 h after the last study treatment administration and the blood samples were collected from all groups of mice via cardiac puncture using a standardized protocol. Collected blood was allowed to coagulate before centrifugation at 2000×g for 20 min after which the serum was stored at −80° C. until the analysis.

[4] = Body weight of mice on daily i.p. administration for 6 days (Example 1); format: in vivo, C57BL/6J mice; details: for Mean body weight: N=10
Protocol: Two months old male C57BL/6J mice were housed (4-5 mice per cage) with food and water available ad libidum at a temperature control of 24-26° C. and a 12 h light/dark cycle. 3-4 days before the start of the study, the mice were randomized into 3 experimental groups (N=10 per group) using online randomization tool (Graph Pad, USA). Body weights of each animal were measured once a day during the entire study, their health conditions were assessed at the same time. Elocalcitol (100 μg/kg), vitamin D3 (cholecalciferol,100 μg/kg), or vehicle control were administrated intraperitoneally once a day for 6 days.

HFD-fed mice [5] = experiment: Prevention of total body weight gain in high-fat diet mice (Example 2); format: in vivo, C57BL/6J mice
Protocol: Mice were group-housed (4-5 mice per cage) on a proper temperature control of 24-26° C. with a 12 h light/dark cycle with food and water available ad libidum. […] Body weight was measured once a week and the amount of food and water consumed by the animals was measured once a month.

HFD-fed mice [6] = experiment: Glucose tolerance test (GTT); format: in vivo, C57BL/6J mice; details: glucose 2 g/kg i.p.; study week 16; 15 μg/kg i.p. twice a week
Protocol: as §1
(§2) For GTT, mice were fasted overnight for 10-12 h and blood glucose was measured from the tail blood using Accu-Chek Performa system glucose meter (Roche, Germany) and the baseline glucose values (0 min) were recorded. The animals were then injected intraperitoneally with glucose (2 g/kg) and after glucose injection the blood glucose was measured from tail blood according to this schedule: 15, 30, 60, 90, and 120 min.

HFD-fed mice [7] = experiment: Insulin tolerance test (ITT); format: in vivo, C57BL/6J mice; details: insulin 0,5 U/kg i.p.; study week 16; 15 μg/kg i.p. twice a week
Protocol: as §1
as §2, with “Insulin tolerance test (ITT) was performed at the end of the study (study week 16). For” for “For”, “ITT,” for “GTT,”, “fasted” for “fasted overnight”, “6” for “10-12”, “insulin (0,5 U/kg; diluted from 100 U/ml (Novorapid, Novo Nordisk A/S) with saline 0.9%)” for “glucose (2 g/kg)”

[8] = prolonged use; cited from earlier work
NF-κB = details: Penna et al., 2009; cited from earlier work
[9] = 15 μg/kg i.p. twice a week for 16 weeks
[10] = 100 μg/kg i.p. once a day for 6 days
[11] = admin. day 0 (administration start), 100 μg/kg i.p. once a day
[12] = admin. day 1, 100 μg/kg i.p. once a day
[13] = admin. day 2, 100 μg/kg i.p. once a day
[14] = admin. day 3, 100 μg/kg i.p. once a day
[15] = admin. day 4, 100 μg/kg i.p. once a day
[16] = admin. day 5, 100 μg/kg i.p. once a day
[17] = admin. day 6, 100 μg/kg i.p. once a day
[18] = admin. day −1, before administration start, 100 μg/kg group
[19] = admin. day −2, before administration start, 100 μg/kg group
[20] = admin. day −3, before administration start, 100 μg/kg group
[21] = admin. day −4, before administration start, 100 μg/kg group
[22] = day 7, after administration stopped on day 6
[23] = day 7, after administration stopped on day 6, 100 μg/kg i.p.
[24] = day 8, after administration stopped on day 6
[25] = day 8, after administration stopped on day 6, 100 μg/kg i.p.

Q: With C=C1/C(=C\C=C2/CCC[C@]3(C)[C@@H]([C@H](C)CCCC(C)(C)O)CC[C@@H]23)C[C@@H](O)C[C@@H]1O [1,25 (OH)2D3, 1,25-dihydroxycholecalciferol, reference compound] as the compound, how does the “Subcutaneous fat level (MRI) compared to the HFD group” value (HFD-fed mice [1]) read?
A: no statistically significant effect

Q: And the “Visceral fat level (MRI) compared to the HFD group” value (HFD-fed mice [1])?
A: no statistically significant effect

Q: And the “Epididymal fat, absolute organ weight” value (HFD-fed mice [2])?
A: 1874 mg

Q: And the “Epididymal fat, normalized organ weight (organ weight/body weight)” value (HFD-fed mice [2])?
A: 49.67 mg/g

Q: What about the “Liver, absolute organ weight” value (HFD-fed mice [2]) of the same compound?
A: 1374 mg

Q: And the “Liver, normalized organ weight (organ weight/body weight)” value (HFD-fed mice [2])?
A: 36.03 mg/g

Q: What about the “Effect on triglyceride levels” value (HFD-fed mice [3]; [9]) of the same compound?
A: lowered the triglyceride levels similar to the ones in the LFD group

Q: And the HDL in serum (HFD-fed mice [3])?
A: 3.57 mmol/L

Q: And the LDL in serum (HFD-fed mice [3])?
A: 0.82 mmol/L

Q: And the “Total cholesterol in serum” value (HFD-fed mice [3])?
A: 4.44 mmol/L

Q: What about the Triglycerides in serum (HFD-fed mice [3]) of the same compound?
A: 0.68 mmol/L

Q: With C=C1CC[C@H](O)C/C1=C/C=C1\CCC[C@]2(C)[C@@H]([C@H](C)CCCC(C)C)CC[C@@H]12 [Vitamin D3, cholecalciferol, reference compound] as the compound, how does the Weight loss observed [4, 10] read?
A: No weight loss was observed

Q: And the Mean body weight [4, 11]?
A: 23.80 g

Q: What about the Weight change % [4, 12] of the same compound?
A: −0.84%

Q: What about the Mean body weight [4, 12] of the same compound?
A: 23.60 g

Q: And the Weight change % [4, 13]?
A: +0.84%

Q: What about the Mean body weight [4, 13] of the same compound?
A: 24.00 g

Q: And the Weight change % [4, 14]?
A: 0%

Q: And the Mean body weight [4, 14]?
A: 23.80 g

Q: And the Weight change % [4, 15]?
A: +0.84%

Q: And the Mean body weight [4, 15]?
A: 24.00 g

Q: And the Weight change % [4, 16]?
A: +1.68%

Q: What about the Mean body weight [4, 16] of the same compound?
A: 24.20 g

Q: What about the Weight change % [4, 17] of the same compound?
A: +2.52%

Q: And the Mean body weight [4, 17]?
A: 24.40 g

Q: What about the Mean body weight [4, 18] of the same compound?
A: 23.70 g

Q: What about the Mean body weight [4, 19] of the same compound?
A: 23.50 g

Q: And the Mean body weight [4, 20]?
A: 23.50 g

Q: And the Mean body weight [4, 21]?
A: 23.40 g

Q: And the Weight change % [4, 22]?
A: +2.94%

Q: And the Mean body weight [4, 23]?
A: 24.50 g

Q: And the Weight change % [4, 24]?
A: +3.78%

Q: What about the Mean body weight [4, 25] of the same compound?
A: 24.70 g

Q: Which “Average body weight after administration was stopped on Day 6” value [4, 10] does the source give for C=C1/C(=C\C=C2/CCC[C@]3(C)C([C@@H](C)C/C=C/C(O)(CC)CC)=CC[C@@H]23)C[C@@H](O)C[C@@H]1F [elocalcitol] here?
A: returned to normal within two days

Q: What about the Mean body weight [4, 11] of the same compound?
A: 21.50 g

Q: And the Weight change % [4, 12]?
A: +1.4%

Q: What about the Mean body weight [4, 12] of the same compound?
A: 21.80 g

Q: What about the Weight change % [4, 13] of the same compound?
A: −1.4%

Q: And the Mean body weight [4, 13]?
A: 21.20 g

Q: And the Weight change % [4, 14]?
A: −5.58%

Q: What about the Mean body weight [4, 14] of the same compound?
A: 20.30 g

Q: And the Weight change % [4, 15]?
A: −10.7%

Q: What about the Mean body weight [4, 15] of the same compound?
A: 19.20 g

Q: What about the Weight change % [4, 16] of the same compound?
A: −14.42%

Q: And the Mean body weight [4, 16]?
A: 18.40 g

Q: What about the Weight change % [4, 17] of the same compound?
A: −18.6%

Q: What about the Mean body weight [4, 17] of the same compound?
A: 17.50 g

Q: What about the Mean body weight [4, 18] of the same compound?
A: 21.60 g

Q: And the Mean body weight [4, 19]?
A: 21.70 g

Q: What about the Mean body weight [4, 20] of the same compound?
A: 21.60 g

Q: And the Mean body weight [4, 21]?
A: 21.40 g

Q: And the “Drop of average body weight” value ([4]; by treatment Day 4, 100 μg/kg i.p. once a day)?
A: 10.7%

Q: And the “Average decrease in body weight” value ([4]; by treatment Day 6, 100 μg/kg i.p. once a day)?
A: 18.6%

Q: And the Weight change % [4, 22]?
A: −16.75%

Q: And the Mean body weight [4, 23]?
A: 17.90 g

Q: What about the Weight change % [4, 24] of the same compound?
A: −1.07%

Q: What about the Mean body weight [4, 25] of the same compound?
A: 19.20 g

Q: And the “Study week at which inhibition of the HFD-induced weight gain reaches statistical significance” value (HFD-fed mice [5]; 15 μg/kg i.p. twice a week)?
A: 7 study week

Q: And the “Lower relative weight gain compared to the vehicle treated HFD mice” value (HFD-fed mice [5]; 15 μg/kg i.p. twice a week for 16 weeks, study week 16)?
A: 20%

Q: And the “Subcutaneous fat level (MRI) compared to the HFD group” value (HFD-fed mice [1])?
A: significant decrease

Q: What about the “Visceral and subcutaneous fat relative to the LFD mice” value (HFD-fed mice [1]) of the same compound?
A: reversed the visceral and subcutaneous fat of the HFD mice to the levels observed in the LFD mice

Q: And the “Visceral fat level (MRI) compared to the HFD group” value (HFD-fed mice [1])?
A: significant decrease

Q: What about the “Weights of epididymal fat deposits at the study end, group comparison” value (HFD-fed mice [2]) of the same compound?
A: significantly lower than those in the HFD and HFD+vitD groups

Q: What about the “Epididymal fat, absolute organ weight” value (HFD-fed mice [2]) of the same compound?
A: 1312 mg

Q: And the “Epididymal fat, normalized organ weight (organ weight/body weight)” value (HFD-fed mice [2])?
A: 36.29 mg/g

Q: What about the “Liver, absolute organ weight” value (HFD-fed mice [2]) of the same compound?
A: 1412 mg

Q: What about the “Liver, normalized organ weight (organ weight/body weight)” value (HFD-fed mice [2]) of the same compound?
A: 39.45 mg/g

Q: And the “Glucose tolerance of the HFD-fed mice (glucose AUC analysis)” value (HFD-fed mice [6])?
A: statistically significant improvement

Q: What about the “Increased insulin resistance observed in the HFD (insulin tolerance test)” value (HFD-fed mice [7]) of the same compound?
A: reverses the increased insulin resistance observed in the HFD in a statistically significant manner

Q: And the “Effect on cholesterol (the combined HDL and LDL)” value (HFD-fed mice [3]; [9])?
A: statistically significant cholesterol (the combined HDL and LDL) lowering effect

Q: What about the “Effect on triglyceride levels” value (HFD-fed mice [3]; [9]) of the same compound?
A: lowered the triglyceride levels similar to the ones in the LFD group

Q: What about the HDL in serum (HFD-fed mice [3]) of the same compound?
A: 2.99 mmol/L

Q: And the LDL in serum (HFD-fed mice [3])?
A: 0.73 mmol/L

Q: And the “Total cholesterol in serum” value (HFD-fed mice [3])?
A: 3.88 mmol/L

Q: And the Triglycerides in serum (HFD-fed mice [3])?
A: 0.87 mmol/L

Q: And the “Oral dose above which hypercalcemia may ensue” value [8]?
A: higher than 300 μg per day

Q: What about the NF-κB inhibition (NF-κB) of the same compound?
A: inhibits NF-κB by blocking the nuclear translocation of the p65 subunit
